Measured values reported in patent publication EP0133934A2, “Pharmacologically active 1,3,4-thiadiazol-(3,2-a)-thieno-(2,3-d)-pyrimidin-5-(H)one derivatives” (NIKEPHARMA S.r.l., priority 1983, dated 1985).
Where two headings read alike, the source gives them in different places.

Tests used:
[1] = test system: carrageenin oedema; test: Antiinflammatory activity: carrageenin oedema in the rat; assay type: in vivo; conditions: po, 4 h, read-out: OEDEMA INHIBITION % at the fourth hour
Experimental: (§1) The activity tests were carried out on male Spra gue-Dawley rats weighing 200+20 g and on male Swiss mice weighing 26+3 g.
(§2) The test compounds were administered orally by means of gastroesophageal tube, in the form of a suspen sion in a 10 ml/kg mucilage of 5% gum arabic; and intraperitoneally in the form of an aqueous suspen sion added with a few drops of Tween 80, in the con stant volume of 10 ml/kg.
The compounds under test and the control ones were administered orally one hour before the injection of 0.1 ml of 1% carrageenin in the right paw of the animals.
The volume of the paw was measured by means of a plethysmograph immediately before the injection and 2, 4 and 6 hours after.
The results were expressed as percentage inhibi tion of the oedema in the treated animals in comparison with the control animals, at the time of the maximum oedema development (fourth hour after the carrageenin injection).

[2] = test system: Writhing test induced by phenyl-benzoquinone; test: Phenylbenzoquinone writhing test in the rat; assay type: in vivo
Experimental: as §1, §2

[3] = test system: acetic acid peritonitis; test: Anti-exudative activity: acetic acid peritonitis in the rat; assay type: in vivo; conditions: for PERITONEAL EXUDATE ml ± E.S.: controls 2.91 ± 0.12; for anti-exudative activity: oral dose of 10 mg/kg, result in words; for EXUDATE VOLUME ml ± E.S.: controls 2.58 ± 0.18
Experimental: The test was carried out according to the procedure described by Arrigoni-Martelli (Boll.Chim. Far. 107, 29, 1968). This method is based upon the evaluation of the anti-exudative effect of a drug at the peritoneal level, following a intraperitoneal injection of 10 ml/kg of a 0.5% acetic acid solution.
The compounds under test were administered oral ly one hour before the inflammatory agent; 30 minutes after the treatment the animals were killed and the fluid from the peritoneal cavity was drawn and measured.
The test compounds were administered by oral route 1 hour before intraperitoneal injection of acetic acid (10 ml/kg of a 0.5% solution).
The anti-exudative activity was determined on the basis of the peritoneal exudate of the treated animals, in comparison with the controls.

[4] = test system: gastric ulceration; assay type: in vivo, rat; conditions: os; for ULCERA-TION DEGREE: scale 0 to 4
Experimental: To rats fasted for 18 hours, with water ad libitum, were administered the compounds under test at "0" time and after 2 hours. Control rats were treated with established anti-inflammatory agents.
6 Hours after the beginning of the test, the animals were killed by ether inhalation.
Gastric ulceration was assessed on the ground of values ranging from 0 to 4: • 0 = no ulceration; • 1 = slight iperhaemia and/or a few ulcers; • 2 = severe iperhaemia and many punctiform ulcers; • 3 = severe submucosal hemorrage, one large ulcer and many punctiform ulcers; • 4 severe submucosal hemorrage and many large ulcers.
The ulcerogenic index was measured by the following formula (Lwoff. J.M., J. Pharmacol., 2, 81, 1971): [formula]

[5] = test system: phenylbenzoquinone writhing test; test: Phenylbenzoquinone writhing test in the mouse (ED50 and duration of effect); assay type: in vivo; conditions: for % INHI-BITION / N° OF WRITHES IN 10' ml ± E.S.: Table 6, oral, one hour before the test; for N° OF WRITHES IN 10' ml ± E.S.: controls 52.4 ± 1.69; for % INHIBITION / Nº OF WRITHES IN 10' ml ± E.S.: Table 7, oral 1 mg/kg; for Nº OF WRITHES IN 10' ml ± E.S.: controls 53.2 ± 1.26
Experimental: The analgesic effect was determined by the number of writhes of the abdomen recorded during 10 minutes (from 5 to 15 minutes after the phenylbenzo quinone injection).

[6] = test system: Carrageenin pleuritis; test: Carrageenin pleuritis in the rat; assay type: in vivo; conditions: for EXUDATE VOLUME: 30 min. before carrageenin and 6 hours after, exudate at 18 hours, controls 2.76 ± 0.38
Experimental: Compound HA-34 was tested for the protective activity against the exudative pleuritis reaction induced by carrageenin. HA-34 was administered 30 min. before the injection of carrageenin, and 6 hours after it. The experiment was carried out on male Spra- gue-Dawley rats, anestethized with ethyl urethane, which were subjected, in their right pleural cavity, to injection of 1.5 ml of air and then 0.1 ml of a 1% carrageenin solution, in sterile normal saline, according to the procedure by Van Armann et al. (J. Pharmac. Exp. Ther., 150, 328, 1965). Indometha cin and Piroxicam were employed as the control drugs, under the same conditions. 18 Hours after the intrapleuric carrageenin injec tion, the animals were killed by means of ether inhalation, and the pleuric exudate was collected and measured.

[7] = os, 100 mg/kg, one hour before carrageenin
[8] = Rattus norvegicus, po, 10 min, os, read-out: % INHIBI-TION
[9] = Rattus norvegicus, po, Table 4, os, 10 mg/kg
[10] = 400 mg/kg, at 0 time and after 2 hours, killed at 6 hours
[11] = 30 min. before phenylbenzoquinone

Structure (SMILES): CCOc1ccccc1-c1nn2c(=O)c3c4c(sc3nc2s1)CCCC4 [HA 36]
- inhibition in vivo at 100 mg/kg [1, 7]: 52.7 ± 0.61%
- inhibition in vivo at 0.5 mg/kg [2, 8]: 22%
- inhibition in vivo at 5 mg/kg [2, 8]: 60%
- inhibition in vivo at 10 mg/kg [3, 9]: 49%
- PERITONEAL EXUDATE ml ± E.S. ([3]; Table 4, os, 10 mg/kg): 1.48 ± 0.10 mL
- ULCERA-TION INDEX ([4]; 400 mg/kg): 0
- % ANIMALS WITH ULCERS [4, 10]: 0%
- ULCERA-TION DEGREE ([4]; 400 mg/kg): 0

Structure (SMILES): O=c1c2c3c(sc2nc2sc(-c4ccccc4)nn12)CCCC3 [HA 33]
- inhibition in vivo at 100 mg/kg [1, 7]: 39.6 ± 0.76%
- inhibition in vivo at 0.5 mg/kg [2, 8]: 27%
- inhibition in vivo at 5 mg/kg [2, 8]: 70%
- inhibition in vivo at 10 mg/kg [3, 9]: 68%
- PERITONEAL EXUDATE ml ± E.S. ([3]; Table 4, os, 10 mg/kg): 1.04 ± 0.16 mL
- ULCERA-TION INDEX ([4]; 400 mg/kg): 0
- % ANIMALS WITH ULCERS [4, 10]: 0%
- ULCERA-TION DEGREE ([4]; 400 mg/kg): 0

Structure (SMILES): Cc1cccc(Nc2ccccc2C(=O)O)c1C [MFA, mephenamic acid]
- inhibition in vivo at 100 mg/kg [1, 7]: 49.2 ± 0.86%
- inhibition in vivo at 5 mg/kg [2, 8]: 24%
- inhibition in vivo at 10 mg/kg ([2]; Rattus norvegicus, po, 10 min, os, 10 mg/kg, read-out: % INHIBI-TION): 33%
- inhibition in vivo at 10 mg/kg [3, 9]: 6%
- PERITONEAL EXUDATE ml ± E.S. ([3]; Table 4, os, 10 mg/kg): 2.60 ± 0.15 mL
- anti-exudative activity [3]: did not display valuable anti-exudat- ing properties
- % ANIMALS WITH ULCERS ([4]; 200 mg/kg): 50%
- ULCERA-TION INDEX ([4]; 200 mg/kg): 50
- ULCERA-TION DEGREE ([4]; 200 mg/kg): 1.0

Structure (SMILES): Cc1nn2c(=O)c3c4c(sc3nc2s1)CCC4 [HA 30]
- inhibition in vivo at 100 mg/kg [1, 7]: 35.6 ± 0.74%
- inhibition in vivo at 0.5 mg/kg [2, 8]: 15%
- inhibition in vivo at 5 mg/kg [2, 8]: 36%
- analgesic action ([2]; oral doses of 5 and 0.5 mg/kg, result in words): substan tially comparable to the reference compound
- inhibition in vivo at 10 mg/kg [3, 9]: 14%
- PERITONEAL EXUDATE ml ± E.S. ([3]; Table 4, os, 10 mg/kg): 2.50 ± 0.10 mL
- anti-exudative activity [3]: did not display valuable anti-exudat- ing properties

Structure (SMILES): CC(=O)Oc1ccccc1C(=O)O [ASA, Acetylsali cylic acid]
- inhibition in vivo at 100 mg/kg [1]: 31.4 ± 0.37%
- inhibition in vivo at 50 mg/kg ([2]; Rattus norvegicus, po, 10 min, read-out: % INHIBI-TION): 40%
- PERITONEAL EXUDATE ml ± E.S. ([3]; Table 4, os, 20 mg/kg): 2.76 ± 0.13 mL
- anti-exudative activity [3]: did not display valuable anti-exudat- ing properties
- % ANIMALS WITH ULCERS ([4]; 200 mg/kg): 78%
- ULCERA-TION INDEX ([4]; 200 mg/kg): 112
- ULCERA-TION DEGREE ([4]; 200 mg/kg): 1.5

Structure (SMILES): CN1C(C(=O)Nc2ccccn2)=C(O)c2ccccc2S1(=O)=O [PIROXICAM, Piroxicam]
- inhibition in vivo at 0.1 mg/kg ([3]; Rattus norvegicus, po, Table 8, oral, 0.1 mg/kg): 24.6%
- inhibition in vivo at 1 mg/kg ([3]; Rattus norvegicus, po, Table 8, oral, 1 mg/kg): 51.2%
- inhibition in vivo at 10 mg/kg ([3]; Rattus norvegicus, po, Table 8, oral, 10 mg/kg): 80%
- inhibition in vivo at 20 mg/kg ([3]; Rattus norvegicus, po, Table 8, oral, 20 mg/kg): 95.2%
- ED50 ([3]; Rattus norvegicus, oral administration 1 hour before i.p. acetic acid): 0.7 mg/kg
- EXUDATE VOLUME ml ± E.S. ([3]; Table 8, oral, 0.1 mg/kg, 1 hour before acetic acid): 1.94 ± 0.08 mL
- EXUDATE VOLUME ml ± E.S. ([3]; Table 8, oral, 0.5 mg/kg): 1.37 ± 0.07 mL
- EXUDATE VOLUME ml ± E.S. ([3]; Table 8, oral, 1 mg/kg): 1.26 ± 0.06 mL
- EXUDATE VOLUME ml ± E.S. ([3]; Table 8, oral, 10 mg/kg): 0.49 ± 0.04 mL
- EXUDATE VOLUME ml ± E.S. ([3]; Table 8, oral, 20 mg/kg): 0.12 ± 0.06 mL
- ED50 ([5]; Mus musculus, 1 h, oral administration one hour before the test, read-out: ED50): 1.2 mg/kg
- % INHI-BITION ([5]; 0.1 mg/kg): 11.8%
- % INHI-BITION ([5]; 0.5 mg/kg): 28.4%
- N° OF WRITHES IN 10' ml ± E.S. ([5]; 0.5 mg/kg): 37.5 ± 1.26
- % INHI-BITION ([5]; 1 mg/kg): 54.8%
- N° OF WRITHES IN 10' ml ± E.S. ([5]; 1 mg/kg): 23.7 ± 2.18
- % INHI-BITION ([5]; 2 mg/kg): 61.8%
- % INHI-BITION ([5]; 5 mg/kg): 82.2%
- N° OF WRITHES IN 10' ml ± E.S. ([5]; 5 mg/kg): 9.3 ± 1.44
- % INHIBITION [5, 11]: 54.5%
- Nº OF WRITHES IN 10' ml ± E.S. [5, 11]: 24.2 ± 1.62
- % INHIBITION ([5]; 1 h before phenylbenzoquinone): 57.3%
- Nº OF WRITHES IN 10' ml ± E.S. ([5]; 1 h before phenylbenzoquinone): 22.7 ± 2.18
- % INHIBITION ([5]; 3 h before phenylbenzoquinone): 67.6%
- % INHIBITION ([5]; 4 h before phenylbenzoquinone): 63.3%
- % INHIBITION ([5]; 6 h before phenylbenzoquinone): 65.0%
- % INHIBITION ([5]; 8 h before phenylbenzoquinone): 60.1%
- Nº OF WRITHES IN 10' ml ± E.S. ([5]; 8 h before phenylbenzoquinone): 21.2 ± 0.72
- % INHIBITION ([5]; 24 h before phenylbenzoquinone): 57.5%
- Nº OF WRITHES IN 10' ml ± E.S. ([5]; 24 h before phenylbenzoquinone): 22.6 ± 1.37
- % INHIBITION ([5]; 32 h before phenylbenzoquinone): 12.0%
- % INHIBITION ([6]; 5 mg/kg): 39.5%
- EXUDATE VOLUME ([6]; 5 mg/kg): 1.67 ± 0.33
- % INHIBITION ([6]; 10 mg/kg): 64.1%
- EXUDATE VOLUME ([6]; 10 mg/kg): 0.99 ± 0.40

Structure (SMILES): CCc1nn2c(=O)c3c4c(sc3nc2s1)CCCC4 [HA 32]
- inhibition in vivo at 100 mg/kg [1, 7]: 49.6 ± 0.82%
- inhibition in vivo at 0.5 mg/kg [2, 8]: 48%
- inhibition in vivo at 5 mg/kg [2, 8]: 76%
- inhibition in vivo at 10 mg/kg [3, 9]: 74%
- PERITONEAL EXUDATE ml ± E.S. ([3]; Table 4, os, 10 mg/kg): 0.93 ± 0.14 mL
- ULCERA-TION INDEX ([4]; 400 mg/kg): 0
- % ANIMALS WITH ULCERS [4, 10]: 0%
- ULCERA-TION DEGREE ([4]; 400 mg/kg): 0
